Reference: patent US11051515B2, “3-acyl-benzamides and their use as herbicides” (Bayer Aktiengesellschaft, priority 2017, dated 2021)

Columns and labels:
POLCO [1] = assay: Pre-emergence action against POLCO; assay type: in vivo, Polygonum convolvulus; conditions: Fallopia convolvulus, 504 h; Dosage 320 g/ha, pre-emergence
How it was run: (§1)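 Seeds sown in sandy loam in wood-fiber pots and covered with soil. Greenhouse growth; visual damage scored after 3 weeks versus untreated controls (100% = dead, 0% = like control).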

ABUTH = assay: Post-emergence action against ABUTH; assay type: in vivo, Abutilon theophrasti; conditions: Abutilon theophrasti, 504 h; post-emergence, dosage 80 g/ha, visual assessment about 3 weeks after treatment vs untreated controls; read-out: Post-emergence action against ABUTH (herbicidal action in percent)
How it was run: (§2)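 Post-emergence foliar spray on greenhouse plants at the one-leaf stage, using wettable-powder or emulsion-concentrate formulations in water (600 to […], plus 0.2% wetting agent). Damage scored by eye roughly 3 weeks later against untreated plants: 0% = like control, 100% = dead.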

AVEFA [2] = assay: Post-emergence action against AVEFA; assay type: in vivo, Avena fatua; conditions: Avena fatua, 504 h; post-emergence, dosage 80 g/ha, visual assessment about 3 weeks after treatment vs untreated controls; read-out: Post-emergence action against AVEFA (herbicidal action in percent)
How it was run: as §2

ALOMY [3] = assay: Post-emergence action against ALOMY; assay type: in vivo, Alopecurus myosuroides; conditions: Alopecurus myosuroides, 504 h; Dosage 80 g/ha, post-emergence
How it was run: as §2

POLCO [4] = assay: Post-emergence action against POLCO; assay type: in vivo, Polygonum convolvulus; conditions: Fallopia convolvulus, 504 h; post-emergence, dosage 80 g/ha
How it was run: as §2

VERPE [5] = assay: Post-emergence action against VERPE; assay type: in vivo, Veronica persica; conditions: Veronica persica, 504 h, dosage 80 g/ha
How it was run: as §2

ALOMY [6] = assay: Pre-emergence action against ALOMY; assay type: in vivo, Alopecurus myosuroides; conditions: Alopecurus myosuroides, 504 h; dosage 320 g/ha; pre-emergence; scored visually after 3 weeks vs untreated controls; 100% = plants have died, 0% = like control plants; read-out: Pre-emergence action against ALOMY (herbicidal activity in percent)
How it was run: as §1

CYPES = assay: Pre-emergence action against CYPES; assay type: in vivo, Cyperus esculentus; conditions: Cyperus esculentus, 504 h; pre-emergence, dosage 320 g/ha, scored visually after 3 weeks vs untreated controls; read-out: Pre-emergence action against CYPES (herbicidal activity)
How it was run: as §1

SETVI [7] = assay: Post-emergence action against SETVI; assay type: in vivo, Setaria viridis; conditions: Setaria viridis, 504 h; post-emergence, dosage 80 g/ha, visual assessment about 3 weeks after treatment vs untreated controls; read-out: Post-emergence action against SETVI (herbicidal action in percent)
How it was run: as §2

STEME [8] = assay: Pre-emergence action against STEME; assay type: in vivo, Stellaria media; conditions: Stellaria media, 504 h; Dosage 320 g/ha, pre-emergence
How it was run: as §1

VERPE [9] = assay: Pre-emergence action against VERPE; assay type: in vivo, Veronica persica; conditions: Veronica persica, 504 h; Dosage 320 g/ha, pre-emergence
How it was run: as §1

VIOTR = assay: Pre-emergence action against VIOTR; assay type: in vivo, Viola tricolor; conditions: Viola tricolor, 504 h; Dosage 320 g/ha, pre-emergence
How it was run: as §1

STEME [10] = assay: Post-emergence action against STEME; assay type: in vivo, Stellaria media; conditions: Stellaria media, 504 h; post-emergence, dosage 80 g/ha
How it was run: as §2

PHBPU = assay: Pre-emergence action against PHBPU; assay type: in vivo, Pharbitis purpurea; conditions: Ipomoea purpurea, 504 h; Dosage 320 g/ha, pre-emergence
How it was run: as §1

ECHCG = assay: Pre-emergence action against ECHCG; assay type: in vivo, Echinochloa crus-galli; conditions: Echinochloa crus-galli, 504 h; pre-emergence, dosage 320 g/ha, scored visually after 3 weeks vs untreated controls; read-out: Pre-emergence action against ECHCG (herbicidal activity)
How it was run: as §1

AMARE [11] = assay: Pre-emergence action against AMARE; assay type: in vivo, Amaranthus retroflexus; conditions: Amaranthus retroflexus, 504 h; pre-emergence, dosage 320 g/ha, scored visually after 3 weeks vs untreated controls; read-out: Pre-emergence action against AMARE (herbicidal activity)
How it was run: as §1

AVEFA [12] = assay: Pre-emergence action against AVEFA; assay type: in vivo, Avena fatua; conditions: Avena fatua, 504 h, dosage 320 g/ha, scored visually after 3 weeks vs untreated controls, read-out: Pre-emergence action against AVEFA (herbicidal activity)
How it was run: as §1

AMARE [13] = assay: Post-emergence action against AMARE; assay type: in vivo, Amaranthus retroflexus; conditions: Amaranthus retroflexus, 504 h; post-emergence, dosage 80 g/ha, visual assessment about 3 weeks after treatment vs untreated controls; read-out: Post-emergence action against AMARE (herbicidal action in percent)
How it was run: as §2

SETVI [14] = assay: Pre-emergence action against SETVI; assay type: in vivo, Setaria viridis; conditions: Setaria viridis, 504 h; pre-emergence, dosage 320 g/ha, scored visually after 3 weeks vs untreated controls; read-out: SETVI (Table B8, pre-emergence herbicidal activity)
How it was run: as §1

Row | SMILES | pest or weed control at 320 g/ha (POLCO [1]) | pest or weed control at 80 g/ha (ABUTH) | pest or weed control at 80 g/ha (AVEFA [2]) | pest or weed control at 80 g/ha (ALOMY [3]) | pest or weed control at 80 g/ha (POLCO [4]) | pest or weed control at 80 g/ha (VERPE [5]) | pest or weed control at 320 g/ha (ALOMY [6]) | pest or weed control at 320 g/ha (CYPES) | pest or weed control at 80 g/ha (SETVI [7]) | pest or weed control at 320 g/ha (STEME [8]) | pest or weed control at 320 g/ha (VERPE [9]) | pest or weed control at 320 g/ha (VIOTR) | pest or weed control at 80 g/ha (STEME [10]) | pest or weed control at 320 g/ha (PHBPU) | pest or weed control at 320 g/ha (ECHCG) | pest or weed control at 320 g/ha (AMARE [11]) | pest or weed control at 320 g/ha (AVEFA [12]) | pest or weed control at 80 g/ha (AMARE [13]) | pest or weed control at 320 g/ha (SETVI [14])
1 | COc1c(C(=O)Nc2nnnn2C)ccc(C(F)(F)F)c1C(=O)C1CC1 [1-50] | 90% | 100% | 100% | 80% | 100% | 100% | 100% | 100% | 100% | 100% | 100% | 100% | 100% | 100% | 100% | 100% | 100% | 90% | 100%
2 | CCn1nnnc1NC(=O)c1ccc(C(F)(F)F)c(C(=O)C2CC2)c1C [2-18, 3-(cyclopropylcarbonyl)-N-(1-ethyl-1H-tetrazol-5-yl)-2-methyl-4-(trifluoromethyl)benzamide] | 90% | 100% | 100% | 100% | 100% | 80% | 100% | 100% | 100% | 90% | 100% | 100% | 100% | 90% | 100% | 100% | 100% | 100% | 100%
3 | CSc1c(C(=O)Nc2nnnn2C)ccc(C(F)(F)F)c1C(=O)C1CC1 [1-60] | 100% | 90% | 100% | 100% | 100% | 100% | 100% | 100% | 100% | 100% | 100% | 100% | 100% | 100% | 100% | 100% | 100% | 100% | 100%
4 | Cn1nnnc1NC(=O)c1ccc(C(F)(F)F)c(C(=O)C2CC2)c1Cl [1-141] | 80% | 100% | 100% | 100% | 100% | 100% | 100% | 100% | 100% | 100% | 100% | 100% | 100% | 100% | 100% | 100% | 100% | 100% | 100%
5 | CSc1c(C(=O)Nc2nnnn2C)ccc(C(F)F)c1C(=O)C1CC1 [1-67] | 100% | 100% | 100% | 100% | 100% | 100% | 100% | 90% | 100% | 100% | 100% | 100% | 100% | 100% | 100% | 100% | 80% | 100% | 100%
6 | Cn1nnnc1NC(=O)c1ccc(C(F)F)c(C(=O)C2CC2)c1Cl [1-168] | 90% | 100% | 100% | 100% | 100% | 100% | 100% | 90% | 100% | 100% | 100% | 100% | 100% | 100% | 100% | 100% | 100% | 100% | 100%
7 | CC(=O)c1c(I)ccc(C(=O)Nc2nnnn2C)c1Cl [1-192] | 80% | 100% | 80% | 80% | 100% | – | 100% | 90% | 100% | 100% | – | 100% | – | 100% | 100% | 100% | 100% | 100% | 100%
8 | CC(=O)c1c(C(F)F)ccc(C(=O)Nc2nnnn2C)c1Cl [1-164] | 100% | 100% | 80% | 90% | 90% | 100% | 100% | 100% | 90% | 100% | 100% | 100% | 90% | 100% | 100% | 100% | 100% | 100% | 100%
9 | CC(=O)c1c(C(F)(F)F)ccc(C(=O)Nc2nnnn2C)c1Cl [1-137, 3-acetyl-2-chloro-N-(1-methyl-1H-tetrazol-5-yl)-4-(trifluoromethyl)benzamide] | 100% | 90% | 100% | 80% | 100% | 90% | 90% | 100% | 100% | 100% | 100% | 100% | 100% | 90% | 100% | 100% | 100% | 90% | 100%
